Like-named read-outs stand apart in the source and are kept apart here.
Assays:
[1] = system: A375 cells (parental); assay: Dose-response curves and IC50, PrestoBlue cell viability, 72 h; format: cell-based, human; conditions: read-out: Half-maximal inhibitory concentration value (IC50), Mean
[2] = system: A375-XP cells (Vemurafenib-resistant); assay: Kinase inhibitor library screening, PrestoBlue cell viability, 1 or 10 μM, 72 h; conditions: A375 XP, 72 h
[3] = system: 501Mel cells (parental); assay: as above; conditions: 501Mel Parental, 72 h
Procedure, shortened: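 Two concentrations of every kinase inhibitor were tested on each melanoma line and its resistant counterparts, and cell survival was quantified by PrestoBlue against untreated wells.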

[4] = system: A375-GP cells (Dabrafenib-resistant); assay: as above; conditions: A375 GP, 72 h
[5] = system: 501Mel-XP cells (Vemurafenib-resistant); assay: as above; conditions: 501Mel XP, 72 h
[6] = system: IGR37-GP cells (Dabrafenib-resistant); assay: as above; conditions: IGR37 GP, 72 h
[7] = system: 501Mel-GP cells (Dabrafenib-resistant); assay: as above; conditions: 501Mel GP, 72 h
[8] = system: A375 cells (parental); assay: as above; conditions: A375 Parental, 72 h
[9] = system: IGR37-XP cells (Vemurafenib-resistant); assay: as above; conditions: IGR37 XP, 72 h
[10] = system: IGR37 cells (parental); assay: as above; conditions: IGR37 Parental, 72 h
[11] = system: A375-XP cells (Vemurafenib-resistant); assay: Dose-response curves and IC50, PrestoBlue cell viability, 72 h; format: cell-based, human; conditions: n.e. = did not suppress growth below 50% in the tested concentration range, read-out: Half-maximal inhibitory concentration value (IC50), Mean
[12] = system: A375-GP cells (Dabrafenib-resistant); assay: as above; format: cell-based, human; conditions: n.e. = did not suppress growth below 50% in the tested concentration range, read-out: Half-maximal inhibitory concentration value (IC50), Mean
[13] = system: IGR37-GP cells (Dabrafenib-resistant); assay: as above; conditions: Homo sapiens, 72 h, read-out: Half-maximal inhibitory concentration (IC50)
Method: All inhibitors used in this study were purchased from Selleck Chemicals (Houston, USA). They were dissolved in DMSO to a stock concentration of 10 mM according to the manufacturer’s instructions and stored at − 80 °C. […] Cell viability was measured with the PrestoBlue Cell Viability Reagent (ThermoFisher Scientific) on a CLARIOstar Monochromator microplate reader (BMG Labtech). Using the GraphPad Prism v5.04 software, the half-maximal inhibitor concentration values (IC50) were determined from the curve using the nonlinear log (inhibitor) vs response-variable slope (four parameters) equation. […] The IC50’s were determined for 3 biological replicates and are listed with their standard deviations.
Values represent the mean of at least three biological replicates; one representative curve of at least 3 biological replicates is depicted. _XP: cells resistant to Vemurafenib (red), _GP: cells resistant to Dabrafenib (green).

[14] = n.e. = did not suppress growth below 50% in the tested concentration range
[15] = Homo sapiens, A-375, n.e. = did not suppress growth below 50% in the tested concentration range

Nc1ncnc2c1c(-c1cnc3[nH]ccc3c1)nn2C1CCCC1 [PP-121, reference compound]
IC50 [1, 14]: 550 nM | cell viability (kinase inhibitor library screening) ([2]; 1μΜ): 37.9% | cell viability (kinase inhibitor library screening) ([2]; 10μΜ): 4.5% | cell viability (kinase inhibitor library screening) ([3]; 1μΜ): 55.7% | cell viability (kinase inhibitor library screening) ([3]; 10μΜ): 3.0% | cell viability (kinase inhibitor library screening) ([4]; 1μΜ): 36.1% | cell viability (kinase inhibitor library screening) ([4]; 10μΜ): 8.1% | cell viability (kinase inhibitor library screening) ([5]; 1μΜ): 51.0% | cell viability (kinase inhibitor library screening) ([5]; 10μΜ): 2.4% | cell viability (kinase inhibitor library screening) ([6]; 1μΜ): 69.2% | cell viability (kinase inhibitor library screening) ([6]; 10μΜ): 9.1% | cell viability (kinase inhibitor library screening) ([7]; 1μΜ): 44.0% | cell viability (kinase inhibitor library screening) ([7]; 10μΜ): 5.9% | cell viability (kinase inhibitor library screening) ([8]; 10μΜ): 6.5% | cell viability (kinase inhibitor library screening) ([8]; 1μΜ): 45.3% | cell viability (kinase inhibitor library screening) ([9]; 1μΜ): 60.1% | cell viability (kinase inhibitor library screening) ([9]; 10μΜ): 4.3% | cell viability (kinase inhibitor library screening) ([10]; 1μΜ): 75.3% | cell viability (kinase inhibitor library screening) ([10]; 10μΜ): 14.0% | IC50 [11]: 648 nM | IC50 [12]: 417 nM

CCS(=O)(=O)c1cccc(-c2cc(C(=O)NC3CCN(C)CC3)c(C)c3[nH]c4ncc(C)cc4c23)c1 [TAK-901, reference compound]
IC50 [1, 15]: 398 nM | cell viability (kinase inhibitor library screening) ([2]; 1μΜ): 52.1% | cell viability (kinase inhibitor library screening) ([2]; 10μΜ): 9.6% | cell viability (kinase inhibitor library screening) ([3]; 1μΜ): 82.7% | cell viability (kinase inhibitor library screening) ([3]; 10μΜ): 12.7% | cell viability (kinase inhibitor library screening) ([4]; 1μΜ): 41.6% | cell viability (kinase inhibitor library screening) ([4]; 10μΜ): 8.5% | cell viability (kinase inhibitor library screening) ([5]; 1μΜ): 83.2% | cell viability (kinase inhibitor library screening) ([5]; 10μΜ): 25.7% | cell viability (kinase inhibitor library screening) ([6]; 1μΜ): 97.2% | cell viability (kinase inhibitor library screening) ([6]; 10μΜ): 9.5% | cell viability (kinase inhibitor library screening) ([7]; 1μΜ): 88.7% | cell viability (kinase inhibitor library screening) ([7]; 10μΜ): 29.0% | cell viability (kinase inhibitor library screening) ([8]; 10μΜ): 7.6% | cell viability (kinase inhibitor library screening) ([8]; 1μΜ): 45.8% | cell viability (kinase inhibitor library screening) ([9]; 1μΜ): 73.0% | cell viability (kinase inhibitor library screening) ([9]; 10μΜ): 4.0% | cell viability (kinase inhibitor library screening) ([10]; 1μΜ): 93.0% | cell viability (kinase inhibitor library screening) ([10]; 10μΜ): 30.2% | IC50 ([11]; Homo sapiens): 472 nM | IC50 ([12]; Homo sapiens): 338 nM

CC(=O)Nc1cccc(-n2c(=O)n(C3CC3)c(=O)c3c(Nc4ccc(I)cc4F)n(C)c(=O)c(C)c32)c1 [Trametinib]
IC50 [1, 15]: 0.4 nM | IC50 ([11]; Homo sapiens): 2.4 nM | IC50 ([12]; Homo sapiens): 1.2 nM | IC50 [13]: 0.7 nM

CCC[C@H](NC(=O)/C(C#N)=C/c1cccc(Br)n1)c1ccccc1 [WP1130, reference compound]
IC50 [1, 14]: 1620 nM | cell viability, A375 XP, 1μΜ ([2]; 1μΜ, in %): 57.6 | cell viability, A375 XP, 10μΜ ([2]; 10μΜ, in %): 0.429 | cell viability, 501Mel Parental, 1μΜ ([3]; 1μΜ, in %): 93.7 | cell viability, 501Mel Parental, 10μΜ ([3]; 10μΜ, in %): 0.6 | cell viability, A375 GP, 1μΜ ([4]; 1μΜ, in %): 87.1 | cell viability, A375 GP, 10μΜ ([4]; 10μΜ, in %): 1.1 | cell viability, 501Mel XP, 1μΜ ([5]; 1μΜ, in %): 103.9 | cell viability, 501Mel XP, 10μΜ ([5]; 10μΜ, in %): -0.185 | cell viability, IGR37 GP, 10μΜ ([6]; 10μΜ): 1.9% | cell viability, IGR37 GP, 1μΜ ([6]; 1μΜ, in %): 96.2 | cell viability, 501Mel GP, 1μΜ ([7]; 1μΜ, in %): 104.8 | cell viability, 501Mel GP, 10μΜ ([7]; 10μΜ, in %): -0.156 | cell viability, A375 Parental, 1μΜ ([8]; 1μΜ, in %): 89.3 | cell viability, A375 Parental, 10μΜ ([8]; 10μΜ, in %): 0.545 | cell viability, IGR37 XP, 10μΜ ([9]; 10μΜ): 1.1% | cell viability, IGR37 XP, 1μΜ ([9]; 1μΜ, in %): 99.1 | cell viability, IGR37 Parental, 1μΜ ([10]; 1μΜ, in %): 99.4 | cell viability, IGR37 Parental, 10μΜ ([10]; 10μΜ, in %): -1.6 | IC50 [11]: 1550 nM | IC50 [12]: 1580 nM

From article PMC6364417, “Kinase inhibitor library screening identifies synergistic drug combinations effective in sensitive and resistant melanoma cells” (Journal of Experimental & Clinical Cancer Research : CR, 2019)
